Measurements as given in ChEMBL document CHEMBL1131915, “Substituted furans as inhibitors of the PDE4 enzyme” (Bioorg Med Chem Lett, 1999).

Columns and labels:
[1] = molecular target: 3',5'-cyclic-AMP phosphodiesterase 4A (Homo sapiens, UniProt P27815); assay: PDE4A activity assessed using human recombinant purified GST-PDE4A248
Mustela putorius furo = species on record: Mustela putorius furo; assay: Emetic effect in ferret model, threshold value; assay type: functional

Chain of 3',5'-cyclic-AMP phosphodiesterase 4A (P27815 whole entry): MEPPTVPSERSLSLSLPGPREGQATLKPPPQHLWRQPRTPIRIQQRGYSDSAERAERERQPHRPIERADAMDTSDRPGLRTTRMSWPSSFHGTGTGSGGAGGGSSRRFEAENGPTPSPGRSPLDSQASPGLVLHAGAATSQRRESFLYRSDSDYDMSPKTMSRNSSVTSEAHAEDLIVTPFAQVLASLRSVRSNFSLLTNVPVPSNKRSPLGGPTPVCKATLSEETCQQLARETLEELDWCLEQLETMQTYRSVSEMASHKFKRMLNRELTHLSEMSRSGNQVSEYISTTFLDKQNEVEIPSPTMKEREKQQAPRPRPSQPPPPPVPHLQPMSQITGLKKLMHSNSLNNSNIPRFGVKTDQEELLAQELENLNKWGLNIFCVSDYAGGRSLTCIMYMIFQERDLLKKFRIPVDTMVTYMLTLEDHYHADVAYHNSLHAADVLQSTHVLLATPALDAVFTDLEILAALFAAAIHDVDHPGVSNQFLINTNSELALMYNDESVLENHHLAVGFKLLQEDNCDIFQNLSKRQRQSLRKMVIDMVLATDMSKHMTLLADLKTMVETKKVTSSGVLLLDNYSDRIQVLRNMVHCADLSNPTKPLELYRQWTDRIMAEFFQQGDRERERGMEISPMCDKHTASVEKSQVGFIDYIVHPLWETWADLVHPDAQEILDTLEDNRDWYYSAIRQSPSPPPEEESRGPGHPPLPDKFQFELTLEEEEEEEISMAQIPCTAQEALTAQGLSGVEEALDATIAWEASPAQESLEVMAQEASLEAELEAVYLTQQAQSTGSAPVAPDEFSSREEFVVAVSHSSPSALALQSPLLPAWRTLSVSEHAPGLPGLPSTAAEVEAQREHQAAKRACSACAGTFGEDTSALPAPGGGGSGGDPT

Compound | IC50 [1] [nM] | Threshold value (Mustela putorius furo) [mg/kg]
COc1ccc(-c2cc(S(=O)(=O)c3ccccc3)c(-c3ccccn3)o2)cc1OC1CCCC1 | 740 | –
COc1ccc(-c2ccc(-c3ccc(OC)c(OC)c3)o2)cc1OC | 560 | –
COc1ccc(-c2oc(-c3ccccn3)cc2C(=O)c2ccccc2)cc1OC1CCCC1 | 590 | –
COc1ccc(-c2cc(C(C)=O)c(-c3ccc(OC)c(OC)c3)o2)cc1OC | 120 | –
COc1ccc(-c2ccc(-c3ccc4ccccc4n3)o2)cc1OC1CCCC1 | 190 | –
O=C(c1ccccc1)c1cc(-c2ccccc2)oc1-c1ccccc1 | 340 | –
COc1ccc(-c2ccc(-c3ccncc3)o2)cc1OC1CCCC1 | 65 | –
COc1ccc(-c2ccc(-c3cccnc3)o2)cc1OC1CCCC1 | 370 | –
c1ccc(-c2cc(N3CCOCC3)c(-c3ccccc3)o2)cc1 | 2300 | –
COc1ccc([C@@H]2CNC(=O)C2)cc1OC1CCCC1 [(-)-ROLIPRAM] | – | 0.3
COc1ccc(-c2ccc(-c3ccccn3)o2)cc1OC1CCCC1 | 25 | 10
c1ccc(-c2ccc(-c3ccccc3)o2)cc1 | > 10000 | –
COc1ccc(-c2ccc(-c3ccc(OC)c(OC4CCCC4)c3)o2)cc1OC1CCCC1 | 44 | –
COc1ccc(-c2oc(-c3ccccn3)cc2S(=O)(=O)c2ccccc2)cc1OC1CCCC1 | 770 | –
